Experimental data reported in patent publication US20050143366A1, “Compounds for diagnosis, treatment and prevention of bone injury and metabolic disorders” (priority 2003, published 2005).

Experiments:
[1] = Binding to microcrystalline hydroxyapatite from dilute aqueous solution; conditions: for % Adsorbed: 10^-5 M in 99:1 H2O:DMSO, 0.5% (w/v) slurried HA in Tris, mixed about 4 minutes, UV of supernatant; for Binding Index: Tetracycline positive control = 100
Excerpt: The ability of the compounds of the present invention to act as bone targeted pharmaceuticals is estimated initially by determination of the ability of the compounds to be bound to microcrystalline hydroxyapatite [Ca10(PO4)6.OH2] (HA) from a dilute aqueous solution. Solutions of test compounds are constructed in about 99: 1, v/v, H2O:dimethylsulfoxide (DMSO) at 10^−5M. These solutions are taken for determination of electronic photometric absorption spectra scanning from λ=500-190 nm. Absorption maxima (λmax) and extinction coefficients (ε) are determined using the Beer-Lambert law. […] These solutions and slurries are mixed for about 4 minutes, then centrifuged for about 3 minutes at 10,000×g. Supernatants are taken for UV absorption spectrometry at previously determined λmax. Concentrations of test compound are determined and the extent of binding is calculated. Tetracycline is included as a positive control compound.

[2] = tested on: bone strength of femora from OVX rats; experiment: Blunt indentation force to failure test of the distal femoral metaphysis; format: in vivo; conditions: FIG. 1
Description: FIG. 1 is a bar graph showing the distal femur strength of animals including those treated with an exemplary compound of the present invention.
Bone density is not necessarily the equivalent to bone strength, so an additional test (blunt indentation force of the distal metaphysis) is performed as well. With reference to FIG. 1, as a measure of bone mechanical competence, a blunt indentation force to failure test is performed on femora from about 6-week-old OVX rats. Sham operated animals are simultaneously tested as a control.

[3] = tested on: bone loss associated with OVX; experiment: Whole femoral density in ovariectomized rats, ED50 for preventing bone loss; format: in vivo, Sprague-Dawley female rats; conditions: dosing 3 times a week for about 6 weeks, dose preventing about 50% of the bone loss, by interpolation; for ED50: Rattus norvegicus, 1008 h, read-out: ED50 (nmol/kg) for preservation of Femoral Mass
Description: In vivo experiments—Bilaterally ovariectomized and sham operated Sprague-Dawley female rats (150-170 g) from Harlan Laboratories (Indianapolis, Ind.) are housed on about a 12 hour dark/light cycle at 22° C. with ad libitum access to tap water and food (Purina Laboratory Rodent Diet 5001: 0.95% calcium, 0.67% total phosphorous, and 0.40% non-phytate phosphorous). The rats are randomly assigned into groups of about 6 to 10 animals. Compound administration begins about 4 days after surgery. […] All compounds are dissolved in 5% DMSO in corn oil. After about 6 weeks of dosing, animals are euthanized by carbon dioxide asphyxiation. Blood is collected by cardiac puncture, and uteri and both left and right femurs are removed. Fresh weights of uteri are obtained. All animal procedures and care are approved by the internal animal care and use committee to ensure compliance with NIH guidelines. Determination of whole femoral density.—Following removal, femurs are rubbed clean of soft tissue using gauze, and femur fresh weights are measured. Femurs are then submerged in distilled water under a vacuum for about 1 hour to completely hydrate the femurs. Densities are determined by Archimedes' Principle using the following formula: density=[mass of hydrated femur/(mass of hydrated femur-mass of hydrated femur submerged in water)]*density of water at ambient temperature. The dose that is effective in preventing about 50% of the bone loss associated with OVX (ED50) is determined by interpolation.

Molecule | % Adsorbed [1] [%] | Binding Index [1] | bone strength (blunt indentation force to failure, distal femur) [2] | ED50 [3] [nmol/kg] | effect on bone strength (blunt indentation force to failure) ([2]; at a normal dose) [%] | ED50 (nmol/kg) for preservation of Femoral Mass [3] [nmol/kg]
NC(=O)c1c(O)ccc(N)c1O [3-amino-2,6-dihydroxybenzamide, reference compound] | 25.4 | 49 |  |  |  | 
C[C@]12CC[C@@H]3c4ccc(O)cc4CC[C@H]3[C@@H]1CC[C@@H]2O [17-β-estradiol, reference compound] | −4.0 | −8 | completely protect against osteopenia | 10 |  | 
CC12CCC3c4ccc(O)cc4CCC3C1CCC2OC(=O)CCC(=O)Nc1ccc(O)c(C(N)=O)c1O (centres unmarked) [BTE2-A1] | 54 | 105 |  | 8 |  | 
COc1ccc(NC(=O)CCC(=O)OC2CCC3C4CCc5cc(O)ccc5C4CCC23C)c(O)c1C(N)=O (centres unmarked) [BTE2-A2] | 91.7 | 178 |  | 19 |  | 
COc1ccc(NC(=O)CCCCC(=O)OC2CCC3C4CCc5cc(O)ccc5C4CCC23C)c(O)c1C(N)=O (centres unmarked) [BTE2-B2] | 99.1 | 192 |  | 9 |  | 
Raloxifene [reference compound] |  |  |  |  | ~30 | 210
